Reference: patent US11884685B2, “Rhenium complexes and methods of use for treating cancer” (CORNELL UNIVERSITY, priority 2018, dated 2024)

Experiments:
[1] = tested on: A2780 (ovarian cancer) cells; experiment: MTT cell viability (cytotoxicity); assay type: cell-based; conditions: 48 hours incubation
Protocol: (§1) All compounds were dissolved in PBS at pH 7.4 to prepare 1-2 mM stock solutions. For cell viability studies, all cells were grown to 80-90% confluence, detached with trypsin/EDTA, seeded in 96-well plates at 4000-8000 cells/well in 100 μL of growth media, and incubated for 24 hours. The medium was removed and replaced with fresh medium (200 μL) containing varying dilutions of either the rhenium compounds, cisplatin, or media. The cells were then incubated for 48 hours. The medium was removed from the wells, and 3-(4,5-dimethylthiazol-2-yl)-[…] (MTT) in DMEM, RPMI, or MEM (200 μL, 1 mg/mL) was added. The additional 48 hours incubation was performed to ensure that the cells were in the logarithmic growth phase and that the cells had adequate time to regrow after exposure to the complexes. After 4 hours, the MTT/DMEM, RPMI, or MEM solution was removed, and the formazan crystals were dissolved in 200 μL of an 8:1 mixture of DMSO and pH 10 glycine buffer. The absorbance at 570 nm in each well was measured using a BioTek Synergy HT plate reader. Cell viability was determined by normalizing the absorbance of the treated wells to untreated wells. The % viability data shown is an average of three independent experiments with six replicates per concentration

[2] = tested on: A2780CP70 (cisplatin-resistant ovarian cancer) cells; experiment: MTT cell viability (cytotoxicity); assay type: cell-based; conditions: 48 hours incubation, read-out: IC50 A2780 CP70 (cisplatin-resistant ovarian cancer)
Protocol: as §1

[3] = tested on: A549 (lung cancer) cells; experiment: MTT cell viability (cytotoxicity); assay type: cell-based; conditions: 48 hours incubation
Protocol: as §1

[4] = tested on: HEK293 (kidney) cells; experiment: MTT cell viability (cytotoxicity); assay type: cell-based; conditions: 48 hours incubation, non-cancer cell line
Protocol: as §1

[5] = tested on: HeLa (cervical cancer) cells; experiment: MTT cell viability (cytotoxicity); assay type: cell-based; conditions: 48 hours incubation
Protocol: as §1

[6] = tested on: A2780 cells
Source text: (§2) Salubrinal operates by inhibiting dephosphorylation of the master regulatory protein eukaryotic initiation factor 2α (eIF2α), an integral component of the UPR. […] Next, the downstream effects of eIF2α phosphorylation were investigated. The most immediate and pronounced effect of eIF2α phosphorylation is the inhibition of translation (S. R. Kimball, Int. J. Biochem. Cell Biol. 1999, 31, 25-29).

[7] = tested on: mutant MEF cell line incapable of eIF2α phosphorylation; conditions: mutant cells after treatment
Source text: as §2

[8] = tested on: eIF2α phosphorylation, ATF4, CHOP in A2780 cells
Source text: as §2
(§3) Hyperphosphorylation of eIF2α can lead to apoptosis via upregulation of the stress-related transcription factors ATF4 and CHOP (H. Matsumoto et al., Biol. Open 2013, 2, 1084-1090). […] Phosphorylation of eIF2α also results in cell cycle arrest in the G1 phase (J. W. Brewer et al., Proc. Natl. Acad. Sci. U.S.A. 2000, 97, 12625-12630).

[9] = tested on: cells; conditions: vs untreated cells
Source text: as §3

[10] = tested on: HeLa cells; conditions: 5 μM, within 30 minutes, vs untreated cells
Source text: Phosphorylation of eIF2α often occurs due to the accumulation of misfolded proteins.

[11] = tested on: National Cancer Institute (NCI)-60 cell line panel
[12] = tested on: cytochrome c release from the mitochondria; conditions: flow cytometry
[13] = tested on: HeLa cells
[14] = tested on: LC3 in A2780 cells; conditions: after 24 hours
[15] = tested on: proteasome inhibition, HSP90 inhibition, reactive oxygen species generation

| Compound | IC50 [1] | IC50 [2] | IC50 [3] | IC50 [4] | IC50 [5] | puromycin incorporation (translation) ([6]; 5 μM, as early as 2 hour post incubation, vs untreated controls) | factor of increase in activity in presence of salubrinal ([6]; 25 μM salubrinal) | translation levels in eIF2α mutant MEF cells [7] | ATF4 and CHOP expression ([8]; Western blot) | eIF2α phosphorylation ([8]; as little as 2 hours after exposure) | increase in population of cells in the G1 phase [9] | fluorescence intensity of ThT (protein aggregates) [10] | activity across NCI-60 cell line panel [11] | cytochrome c release from mitochondria [12] | mitochondrial morphology ([13]; HeLa cells, 5 μM, after only 30 minutes) | mitochondrial polarization (JC-1) ([13]; ratiometric sensor JC-1) | LC3II expression relative to LC3I [14] | protein misfolding via proteasome inhibition, HSP90 inhibition, or ROS generation [15] |
| --- | --- | --- | --- | --- | --- | --- | --- | --- | --- | --- | --- | --- | --- | --- | --- | --- | --- | --- |
| [Re(CO)3(dmphen)(p-tol-ICN)]Cl [TRIP] | 1.7 ± 0.7 µM | 1.9 ± 1 µM | 1.4 ± 0.6 µM | 1.9 ± 0.2 µM | 1.4 ± 0.2 µM | substantially less puromycin | 4 | no changes in translation levels | both ATF4 and CHOP were upregulated | induction of eIF2α phosphorylation | 18% | increased significantly | most potent in melanoma and breast cancer cells lines and least effective in lung and renal cancer cell lines | Cytochrome c release occurs on the same time scale as apoptosis induction | significantly rounded and punctate | mitochondria remained functional | large increase in LC3II expression relative to LC3I | no evidence has been found |
| Cc1ccc2ccc3ccc(C)nc3c2n1.[C-]#[O+].[C-]#[O+].[C-]#[O+].[Re+] [Neo-Re, [Re(CO)3(dmphen)(OH2)]^+] | 5.7 ± 0.6 µM | 6 ± 0.2 µM | 7.7 ± 2.4 µM | 9 ± 0.3 µM | 4.4 ± 1.3 µM | – | – | – | – | – | – | – | – | – | – | – | – | – |
| N.N.[Cl][Pt][Cl] [Cisplatin, cisplatin] | 1.3 ± 0.1 µM | 12 ± 3 µM | 5.6 ± 0.5 µM | 1.7 ± 0.2 µM | 6.6 ± 0.7 µM | – | – | – | – | – | – | – | – | – | – | – | – | – |
